Results on five compounds are retold here after patent US8580842B2, “Heteroaryl-substituted 1,3-dihydroindol-2-one derivatives and medicaments containing them” (Abbott GmbH & Co. KG, priority 2003, dated 2013).

One assay deals with T1, human V1b receptors (Homo sapiens, UniProt P47901).
T1 construct: expressed in transfected cells; host or cells: CHO-K1 (membrane preparation V1b-3H2)
T1 sequence (P47901 1-424): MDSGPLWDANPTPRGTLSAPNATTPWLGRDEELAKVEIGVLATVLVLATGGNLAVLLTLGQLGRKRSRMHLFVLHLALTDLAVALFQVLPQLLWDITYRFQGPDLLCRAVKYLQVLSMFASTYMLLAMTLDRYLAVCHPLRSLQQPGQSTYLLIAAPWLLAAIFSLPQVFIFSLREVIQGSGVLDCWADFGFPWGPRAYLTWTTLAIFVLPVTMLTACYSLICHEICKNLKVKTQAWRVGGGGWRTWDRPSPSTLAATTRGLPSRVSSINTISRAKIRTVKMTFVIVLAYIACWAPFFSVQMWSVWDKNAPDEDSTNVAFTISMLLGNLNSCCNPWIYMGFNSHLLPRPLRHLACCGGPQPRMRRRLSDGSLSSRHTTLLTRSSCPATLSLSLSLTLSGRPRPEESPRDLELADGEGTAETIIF
The assay is described as follows: Vasopressin V1b receptor binding assay. As to conditions: membranes from CHO-K1 cells expressing human V1b receptors, displacement of 1.5 nM 3H-AVP; read-out: Binding affinity for the vasopressin V1b receptor. In short, it runs like this:
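Membranes from CHO-K1 cells stably expressing human V1b incubated with 1.5 nM ³H-AVP and test compound in 50 mM Tris, 10 mM MgCl2, 0.1% BSA, pH 7.4, 60 min at room temperature; non-specific binding with 10^−6 M AVP. Filtration and scintillation counting in triplicate; binding parameters by non-linear regression.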

The subject of a further assay is Male Sprague Dawley rats. The assay can be described thus: Rat forced swim test. The class given is in vivo. The following applies: ip; rat forced swim model, intraperitoneal route, three times before re-testing; read-out: ED50 (decrease of immobility time). The text has this:
Antidepressant Effects of Compounds of this Invention in the Rat Forced Swim Model
The potential antidepressant effects of some examples of this invention were examined in the rat forced swim test. When rats are forced to swim in a cylinder from which no escape is possible they readily adopt a characteristic immobile posture and make no further attempts to escape except for small movements needed to keep floating. The immobility is considered to reflect a ‘depressive mood’ (Porsolt R D, LePichon M, Jalfre M (1977). Depression: a new animal model sensitive to antidepressant treatment. Nature 266, 730-732.), in which animals cease to struggle to escape the aversive situation. The immobility induced by the procedure is influenced by a wide variety of antidepressants (Porsolt R D, Lenegre A, McArthur R A (1991). Pharmacological models of depression. In: Animal models in Psychopharmacology. B. Olivier, J. Mos, J. L. Slangen (eds) Birkhauser Verlag, Basel, pp. 137-159.) and has a good predictive validity in that it detects antidepressants with different mechanisms of action. Administration of antidepressants such as fluoxetine increases the time an animal struggles (decreases the immobility time) when forced to swim in a confined space. Lack of struggling is thought to represent a state of despair.
Procedure: Male Sprague Dawley rats (Janvier) weighing 160-200 gram (n=6) were placed individually into a glass water tank (40 cm×21.5 cm) filled with tap water (25° C.) up to 18 cm. This pre-test lasted for 15 min. Twenty-four hours later, animals were re-tested for 5 min in the same water tank while the total immobility time, swimming time and climbing time were recorded. Rats were considered immobile when they made no further attempts to escape, except for movements necessary to keep their heads above water (Porsolt R D, Anton G, Blavet N & Jalfre M. (1978). Behavioural despair in rats: a new model sensitive to antidepressant treatments. European Journal of Pharmacology 47, 379-391). The absence of hind limb movements was recorded as immobility using a stopwatch by a single observer. […]

A value given as a limit tells only on which side of the number the result lay.

For orientation: ED50 means the dose that gives a 50% effect, or the effect in half of the subjects. As to `COc1ccc(S(=O)(=O)N2C(=O)C(c3cccnc3OC)(N3C[C@H](O)C[C@H]3C(=O)N(C)C)c3cc(Cl)ccc32)c(OC)c1` (single isomer, unassigned) [Example 5], at human V1b receptors, the Ki was less than 50 nM. Also, in the assay on Male Sprague Dawley rats, the 50% effective dose (ED50) is less than 30 mg/kg.

Consider `COc1ccccc1C1(N2C[C@H](O)C[C@H]2C(=O)N(C)C)C(=O)N(S(=O)(=O)c2cccs2)c2ccc(Cl)cc21` (single isomer, unassigned) [Example 29], for which the Ki at human V1b receptors was less than 50 nM. Further, the ED50 in the assay on Male Sprague Dawley rats was less than 30 mg/kg.

Consider `COc1ccc(S(=O)(=O)N2C(=O)C(c3ccc[nH]c3=O)(N3C[C@H](O)C[C@H]3C(=O)N(C)C)c3cc(Cl)ccc32)c(OC)c1` (stereo partly drawn) [Example 224, (2S,4R)-1-[5-Chloro-1-(2,4-dimethoxy-benzenesulfonyl)-2-oxo-3-(2-oxo-1,2-dihydro-pyridin-3-yl)-2,3-dihydro-1H-indol-3-yl]-4-hydroxy-pyrrolidine-2-carlboxylic acid dimethylamide], for which the Ki on human V1b receptors is less than 50 nM.

Take `COc1ccc(S(=O)(=O)N2C(=O)[C@@](c3ccccc3OC)(N3C[C@H](O)C[C@H]3C(=O)N(C)C)c3cc(Cl)ccc32)c(OC)c1` [SSR149415, reference compound]: the ED50 in the assay on Male Sprague Dawley rats was greater than 30 mg/kg.

“(2S,4R)-1-[5-Chloro-3-(2,4-dimethoxy-pyrimidin-5-yl)-1-(5-methyl-pyridine-2-sulfonyl)-2-oxo-2,3-dihydro-1H-indol-3-yl]-4-hydroxy-pyrrolidine-2-carboxylic acid dimethylamide [Example 289]”: on human V1b receptors, the Ki was less than 50 nM.
